Experimental data: ChEMBL document CHEMBL5150005, “Discovery of 5-{4-[(7-Ethyl-6-oxo-5,6-dihydro-1,5-naphthyridin-3-yl)methyl]piperazin-1-yl}-N-methylpyridine-2-carboxamide (AZD5305): A PARP1-DNA Trapper with High Selectivity for PARP1 over PARP2 and Other PARPs” (J Med Chem, 2021)
In brackets after ≈: the same amount, converted by molar mass. Activity calls are given as the source filed them. No cut-off for these calls is given here.

Experiments:
in vitro [1] = settings: human, liver microsomes
[2] = Aqueous solubility of the compound at pH 7.4; assay type: physicochemical; settings: buffer
[3] = target: Voltage-gated inwardly rectifying potassium channel KCNH2 (Homo sapiens, UniProt Q12809); assay: Inhibition of human ERG; assay type: toxicity
Chain of Voltage-gated inwardly rectifying potassium channel KCNH2 (Q12809 whole entry): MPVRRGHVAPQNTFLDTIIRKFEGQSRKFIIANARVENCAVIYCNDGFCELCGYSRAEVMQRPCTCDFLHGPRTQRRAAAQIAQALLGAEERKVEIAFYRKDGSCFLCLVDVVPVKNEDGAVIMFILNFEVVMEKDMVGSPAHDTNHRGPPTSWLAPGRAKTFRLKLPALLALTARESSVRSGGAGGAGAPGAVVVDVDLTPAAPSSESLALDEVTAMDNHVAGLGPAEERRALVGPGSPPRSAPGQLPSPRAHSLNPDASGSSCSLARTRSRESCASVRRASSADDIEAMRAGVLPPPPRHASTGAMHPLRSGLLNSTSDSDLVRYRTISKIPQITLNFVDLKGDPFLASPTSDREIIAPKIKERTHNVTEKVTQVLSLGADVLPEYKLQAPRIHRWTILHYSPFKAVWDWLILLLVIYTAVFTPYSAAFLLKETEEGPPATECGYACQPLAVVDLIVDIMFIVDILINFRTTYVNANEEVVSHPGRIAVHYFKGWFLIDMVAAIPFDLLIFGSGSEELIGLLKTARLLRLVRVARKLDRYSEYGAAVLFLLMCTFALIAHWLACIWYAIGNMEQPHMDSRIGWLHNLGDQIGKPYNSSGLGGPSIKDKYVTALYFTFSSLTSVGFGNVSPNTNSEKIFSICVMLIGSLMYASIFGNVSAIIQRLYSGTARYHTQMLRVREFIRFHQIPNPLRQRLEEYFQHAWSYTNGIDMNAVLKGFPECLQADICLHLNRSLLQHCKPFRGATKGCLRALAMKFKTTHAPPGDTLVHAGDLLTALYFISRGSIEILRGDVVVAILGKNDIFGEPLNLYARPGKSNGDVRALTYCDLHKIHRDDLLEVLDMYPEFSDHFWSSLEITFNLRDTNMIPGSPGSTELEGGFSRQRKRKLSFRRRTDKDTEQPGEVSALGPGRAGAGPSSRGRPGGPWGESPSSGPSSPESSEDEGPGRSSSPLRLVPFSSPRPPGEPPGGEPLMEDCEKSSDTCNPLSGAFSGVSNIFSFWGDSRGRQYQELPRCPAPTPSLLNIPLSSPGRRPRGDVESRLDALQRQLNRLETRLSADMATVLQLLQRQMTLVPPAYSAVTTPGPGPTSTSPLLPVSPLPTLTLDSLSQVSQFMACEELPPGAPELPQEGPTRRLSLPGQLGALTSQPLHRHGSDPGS

physchem = settings: buffer, pH 7.4
[4] = target: Poly [ADP-ribose] polymerase 2 (Homo sapiens, UniProt Q9UGN5); assay: Inhibition of human recombinant N-terminal Avi-6His-TEV tagged PARP2 full length expressed in pFastBac expression system incubated for 4 hrs by fluorescence anisotropy binding assay
Chain of Poly [ADP-ribose] polymerase 2 (Q9UGN5 whole entry): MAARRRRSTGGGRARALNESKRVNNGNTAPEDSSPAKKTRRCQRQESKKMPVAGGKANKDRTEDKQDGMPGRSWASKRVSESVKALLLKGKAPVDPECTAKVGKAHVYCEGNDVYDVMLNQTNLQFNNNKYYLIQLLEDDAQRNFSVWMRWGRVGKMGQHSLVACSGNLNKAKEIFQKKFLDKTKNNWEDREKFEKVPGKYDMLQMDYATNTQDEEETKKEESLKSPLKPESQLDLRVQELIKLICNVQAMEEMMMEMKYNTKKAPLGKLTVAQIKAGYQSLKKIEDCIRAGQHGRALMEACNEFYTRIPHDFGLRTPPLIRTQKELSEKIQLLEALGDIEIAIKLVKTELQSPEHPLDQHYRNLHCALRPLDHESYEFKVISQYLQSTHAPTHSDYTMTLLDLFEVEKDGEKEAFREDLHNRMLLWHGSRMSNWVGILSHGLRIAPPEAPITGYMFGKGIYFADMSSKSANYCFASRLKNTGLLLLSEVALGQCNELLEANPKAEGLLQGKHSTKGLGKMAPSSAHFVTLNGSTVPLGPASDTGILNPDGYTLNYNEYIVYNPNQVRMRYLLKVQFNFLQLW

[5] = target: Poly [ADP-ribose] polymerase tankyrase-1 (Homo sapiens, UniProt O95271)
DLD-1 = assay: Antiproliferative activity against human DLD-1 deficient in BRCA-2 cells measured after 7 days; assay type: functional, cell-based
[6] = target: Poly [ADP-ribose] polymerase 1 (Homo sapiens, UniProt P09874)
Chain of Poly [ADP-ribose] polymerase 1 (P09874 whole entry): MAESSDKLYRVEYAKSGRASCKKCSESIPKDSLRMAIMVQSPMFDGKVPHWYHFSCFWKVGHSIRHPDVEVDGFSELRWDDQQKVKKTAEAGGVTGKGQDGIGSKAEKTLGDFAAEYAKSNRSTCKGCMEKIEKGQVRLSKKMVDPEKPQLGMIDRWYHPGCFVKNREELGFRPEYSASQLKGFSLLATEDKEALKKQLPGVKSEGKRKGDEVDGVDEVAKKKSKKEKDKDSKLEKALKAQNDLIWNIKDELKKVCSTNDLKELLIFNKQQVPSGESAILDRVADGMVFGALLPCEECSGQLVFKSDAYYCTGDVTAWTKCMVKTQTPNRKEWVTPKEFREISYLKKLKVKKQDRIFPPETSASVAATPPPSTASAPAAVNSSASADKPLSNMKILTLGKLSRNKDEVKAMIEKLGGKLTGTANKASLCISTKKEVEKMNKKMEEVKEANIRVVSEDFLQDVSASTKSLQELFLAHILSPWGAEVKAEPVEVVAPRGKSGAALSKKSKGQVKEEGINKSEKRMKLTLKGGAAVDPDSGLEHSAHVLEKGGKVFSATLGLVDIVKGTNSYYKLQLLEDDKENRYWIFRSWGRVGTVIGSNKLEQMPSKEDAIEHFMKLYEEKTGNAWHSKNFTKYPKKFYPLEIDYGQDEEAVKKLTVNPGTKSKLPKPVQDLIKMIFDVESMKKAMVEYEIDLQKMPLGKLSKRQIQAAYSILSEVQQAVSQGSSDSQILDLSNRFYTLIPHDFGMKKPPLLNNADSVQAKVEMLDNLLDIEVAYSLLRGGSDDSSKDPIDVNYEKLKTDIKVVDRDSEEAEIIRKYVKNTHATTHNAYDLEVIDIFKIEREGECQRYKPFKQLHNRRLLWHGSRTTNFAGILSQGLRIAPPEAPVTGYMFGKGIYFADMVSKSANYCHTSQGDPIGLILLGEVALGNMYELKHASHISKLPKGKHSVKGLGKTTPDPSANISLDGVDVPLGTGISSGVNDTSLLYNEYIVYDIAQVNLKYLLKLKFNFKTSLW

in vitro [7] = settings: human, Caco-2, pH 7.4
[8] = Antitumor activity against patient derived explant HBCx-17 cells xenografted in mouse assessed as tumor regression administered daily at 100 mg/kg, po for 25 days relative to control; assay type: functional, Homo sapiens; settings: time 25 day
[9] = Intrinsic clearance in human hepatocytes measured per million of cells; assay type: ADME, cell-based, Hepatocyte; settings: read-out: CLH
[10] = target: Protein mono-ADP-ribosyltransferase PARP11 (Homo sapiens, UniProt Q9NR21)
Chain of Protein mono-ADP-ribosyltransferase PARP11 (Q9NR21 whole entry): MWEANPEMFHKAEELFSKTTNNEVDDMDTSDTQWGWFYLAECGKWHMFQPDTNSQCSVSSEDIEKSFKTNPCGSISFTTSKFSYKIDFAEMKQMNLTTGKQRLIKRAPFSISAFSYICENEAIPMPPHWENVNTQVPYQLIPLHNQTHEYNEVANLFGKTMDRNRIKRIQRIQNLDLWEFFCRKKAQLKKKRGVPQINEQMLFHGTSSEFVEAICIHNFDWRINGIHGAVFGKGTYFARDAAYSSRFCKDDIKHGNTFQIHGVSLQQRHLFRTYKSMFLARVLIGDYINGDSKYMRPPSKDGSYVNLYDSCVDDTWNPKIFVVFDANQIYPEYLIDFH

[11] = target: Poly [ADP-ribose] polymerase tankyrase-2 (Homo sapiens) (UniProt Q9H2K2)
Chain of Poly [ADP-ribose] polymerase tankyrase-2 (Homo sapiens) (Q9H2K2 whole entry): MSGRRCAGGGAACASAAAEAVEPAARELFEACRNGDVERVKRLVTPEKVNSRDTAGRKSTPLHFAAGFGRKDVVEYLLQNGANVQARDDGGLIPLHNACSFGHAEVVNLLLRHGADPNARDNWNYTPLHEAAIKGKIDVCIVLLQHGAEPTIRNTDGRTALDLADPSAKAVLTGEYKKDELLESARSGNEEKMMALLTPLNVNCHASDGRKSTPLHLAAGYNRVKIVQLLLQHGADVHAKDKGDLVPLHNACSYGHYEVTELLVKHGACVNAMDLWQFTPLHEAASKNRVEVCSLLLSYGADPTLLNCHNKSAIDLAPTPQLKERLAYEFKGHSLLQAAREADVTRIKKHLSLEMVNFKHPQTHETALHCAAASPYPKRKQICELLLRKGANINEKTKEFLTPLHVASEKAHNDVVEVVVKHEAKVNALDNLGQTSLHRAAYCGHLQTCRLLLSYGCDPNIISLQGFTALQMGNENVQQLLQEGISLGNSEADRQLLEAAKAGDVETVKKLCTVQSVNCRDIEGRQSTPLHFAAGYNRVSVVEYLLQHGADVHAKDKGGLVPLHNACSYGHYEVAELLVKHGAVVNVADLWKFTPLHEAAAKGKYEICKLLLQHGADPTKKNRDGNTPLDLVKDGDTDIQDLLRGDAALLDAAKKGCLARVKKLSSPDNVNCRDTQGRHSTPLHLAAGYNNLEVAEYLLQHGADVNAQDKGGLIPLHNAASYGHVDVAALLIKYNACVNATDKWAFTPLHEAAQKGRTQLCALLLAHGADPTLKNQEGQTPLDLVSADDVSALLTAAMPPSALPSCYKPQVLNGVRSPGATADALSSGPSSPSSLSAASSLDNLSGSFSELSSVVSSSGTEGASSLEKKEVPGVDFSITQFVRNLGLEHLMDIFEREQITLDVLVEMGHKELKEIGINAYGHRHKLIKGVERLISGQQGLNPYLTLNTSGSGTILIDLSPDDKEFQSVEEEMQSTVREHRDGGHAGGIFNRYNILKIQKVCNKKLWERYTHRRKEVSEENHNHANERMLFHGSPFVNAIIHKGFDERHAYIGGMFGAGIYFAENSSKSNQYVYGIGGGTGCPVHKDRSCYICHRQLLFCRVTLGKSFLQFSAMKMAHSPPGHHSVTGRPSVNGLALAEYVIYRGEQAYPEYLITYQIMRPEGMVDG

[12] = target: T1, Protein mono-ADP-ribosyltransferase PARP9 (Homo sapiens, UniProt Q8IXQ6); assay: Binding affinity to PARP9 (unknown origin) assessed as apparent dissociation constant; settings: read-out: Kd(app)
[13] = target: Protein mono-ADP-ribosyltransferase PARP8 (Homo sapiens, UniProt Q8N3A8); assay: Binding affinity to PARP8 (unknown origin) assessed as apparent dissociation constant; settings: read-out: Kd(app)
[14] = target: Protein mono-ADP-ribosyltransferase PARP12 (Homo sapiens) (UniProt Q9H0J9)
[15] = target: T1, Protein mono-ADP-ribosyltransferase PARP9
[16] = target: Protein mono-ADP-ribosyltransferase PARP14 (Homo sapiens) (UniProt Q460N5)
[17] = target: T2, Protein mono-ADP-ribosyltransferase PARP8 (Homo sapiens) (UniProt Q8N3A8)
T2 sequence (whole entry): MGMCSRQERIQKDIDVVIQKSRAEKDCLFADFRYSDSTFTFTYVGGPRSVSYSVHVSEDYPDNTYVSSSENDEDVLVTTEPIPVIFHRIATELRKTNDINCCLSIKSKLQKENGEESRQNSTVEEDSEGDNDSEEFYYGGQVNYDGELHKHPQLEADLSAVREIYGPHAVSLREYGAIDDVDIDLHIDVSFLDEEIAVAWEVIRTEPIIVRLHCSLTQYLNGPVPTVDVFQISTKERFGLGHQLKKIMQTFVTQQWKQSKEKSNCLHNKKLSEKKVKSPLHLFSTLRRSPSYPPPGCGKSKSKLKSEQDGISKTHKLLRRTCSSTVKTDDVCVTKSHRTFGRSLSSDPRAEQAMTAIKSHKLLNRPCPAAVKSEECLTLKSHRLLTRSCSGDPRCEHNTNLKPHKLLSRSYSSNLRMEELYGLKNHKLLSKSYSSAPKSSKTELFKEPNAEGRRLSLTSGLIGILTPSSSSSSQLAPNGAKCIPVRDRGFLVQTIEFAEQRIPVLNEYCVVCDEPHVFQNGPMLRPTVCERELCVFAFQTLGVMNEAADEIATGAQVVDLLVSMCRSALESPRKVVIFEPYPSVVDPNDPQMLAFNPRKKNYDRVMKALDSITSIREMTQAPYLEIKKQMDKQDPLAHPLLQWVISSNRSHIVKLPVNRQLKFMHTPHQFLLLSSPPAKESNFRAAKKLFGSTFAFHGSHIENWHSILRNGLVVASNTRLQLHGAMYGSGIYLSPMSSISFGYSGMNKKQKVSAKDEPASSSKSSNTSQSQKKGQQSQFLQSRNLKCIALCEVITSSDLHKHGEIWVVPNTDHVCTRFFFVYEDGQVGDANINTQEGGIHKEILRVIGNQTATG

[18] = target: Protein mono-ADP-ribosyltransferase TIPARP (Homo sapiens) (UniProt Q7Z3E1)
Chain of Protein mono-ADP-ribosyltransferase TIPARP (Homo sapiens) (Q7Z3E1 whole entry): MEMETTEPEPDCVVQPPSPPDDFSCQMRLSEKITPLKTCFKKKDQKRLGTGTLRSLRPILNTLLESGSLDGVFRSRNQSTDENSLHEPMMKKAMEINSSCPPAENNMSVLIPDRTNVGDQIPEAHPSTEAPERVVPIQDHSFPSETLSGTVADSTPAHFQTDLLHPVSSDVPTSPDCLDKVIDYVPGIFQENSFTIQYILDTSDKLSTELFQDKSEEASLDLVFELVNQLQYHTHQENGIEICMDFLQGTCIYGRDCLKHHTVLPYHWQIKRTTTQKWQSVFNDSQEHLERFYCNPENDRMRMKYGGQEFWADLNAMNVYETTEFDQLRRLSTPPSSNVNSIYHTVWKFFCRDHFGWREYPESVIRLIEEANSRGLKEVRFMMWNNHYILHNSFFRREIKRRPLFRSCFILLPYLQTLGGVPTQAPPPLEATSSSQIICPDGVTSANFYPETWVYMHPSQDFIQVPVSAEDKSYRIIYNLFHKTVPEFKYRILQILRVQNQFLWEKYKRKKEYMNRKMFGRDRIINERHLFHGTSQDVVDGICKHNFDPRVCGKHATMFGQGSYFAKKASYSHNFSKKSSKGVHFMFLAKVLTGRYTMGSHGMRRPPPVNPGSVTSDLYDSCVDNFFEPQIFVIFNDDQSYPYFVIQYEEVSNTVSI

[19] = target: Protein mono-ADP-ribosyltransferase PARP3 (Homo sapiens) (UniProt Q9Y6F1); assay: Binding affinity to PARP3 (unknown origin) assessed as apparent dissociation constant
[20] = target: Protein mono-ADP-ribosyltransferase PARP16 (Homo sapiens, UniProt Q8N5Y8); assay: Binding affinity to PARP16 (unknown origin) assessed as apparent dissociation constant; settings: read-out: Kd(app)
[21] = target: Poly [ADP-ribose] polymerase tankyrase-1 (Homo sapiens) (UniProt O95271); assay: Binding affinity to PARP5a (unknown origin) assessed as apparent dissociation constant
[22] = target: Protein mono-ADP-ribosyltransferase PARP12 (Homo sapiens, UniProt Q9H0J9)
[23] = Hematotoxicity in CD34+ hematopoietic stem/progenitor cells (unknown origin) assessed as reduction of cell viability treated at 0.00001 to 100 uM for 5 days by cell-tire-Glo-2.0 luminescence based assay relative to control; assay type: toxicity; settings: cd34-positive hematopoietic stem/progenitor cell, 120 h, dose lower 1e-05 µM, dose upper 100 µM, time 5 day
[24] = Hematotoxicity in CD34+ hematopoietic stem/progenitor cells (unknown origin) assessed as remaining viable cells treated at 100 nM for 5 days by cell-tire-Glo-2.0 luminescence based assay relative to control; assay type: toxicity, CD34-positive hematopoietic stem/progenitor cell; settings: time 5 day, read-out: Activity
[25] = Hematotoxicity in CD34+ hematopoietic stem/progenitor cells (unknown origin) assessed as reduction of cell viability treated for 5 days by cell-tire-Glo-2.0 luminescence based assay; assay type: toxicity, CD34-positive hematopoietic stem/progenitor cell

Structure (SMILES)	microsomal CLint (in vitro [1]) [µL/min/mg]	solubility [2] [µM]	IC50 [3] [nM]	logD (physchem)	IC50 [4] [nM]	IC50 (DLD-1; Homo sapiens, DLD-1, 168 h) [nM]	IC50 [6] [nM]	further results
O=c1[nH]c(CCCN2CCN(c3ccc(F)cc3F)CC2)nc2c(Cl)cccc12	58	6 (≈ 2.51 µg/mL)	1400	3.9	22000	–	–	–
NC(=O)c1cc(F)cc2c1C(=O)N(C1CCN(C3CCC(F)(F)CC3)CC1)C2	–	–	–	–	–	2000	–	IC50 [5]: > 100000 nM
CCc1cc2ccc(CN3CCN(c4ccc(F)cc4F)CC3)cc2[nH]c1=O	16	0.2 (≈ 0.0767 µg/mL)	2300	4.2	> 26000	1	8	–
Cc1cnc(N2CCN(Cc3ccc4c(c3)[nH]c(=O)c3cccnc34)CC2)n1C	30	15 (≈ 5.83 µg/mL)	11000	2.5	9100	15	30	efflux ratio (in vitro [7]): 1.3
CCc1cc2ccc(CN3CCN(c4ccc(C(=O)NC)nn4)CC3)cc2[nH]c1=O	14	30 (≈ 12.2 µg/mL)	> 40000	2.4	7400	294	4	efflux ratio (in vitro [7]): 1.5
Cc1cnc(N2CCN(Cc3ccc4c(c3)[nH]c(=O)c3ccccc34)CC2)n1C	26	< 12	3900	3.3	600	–	–	–
Cc1cnc(N2CCN(Cc3ccc4c5c(c(=O)[nH]c4c3)CCCN5)CC2)n1C	15	136 (≈ 53.4 µg/mL)	30000	2.2	1100	52	51	efflux ratio (in vitro [7]): 3.6
O=C(c1cc(Cc2n[nH]c(=O)c3ccccc23)ccc1F)N1CCN(C(=O)C2CC2)CC1 [OLAPARIB]	–	–	–	–	–	42	–	Activity [8]: 81%
CCc1cc2ccc(CN3CCN(c4ccc(C(=O)NC)nc4)CC3)cc2[nH]c1=O	17	9 (≈ 3.65 µg/mL)	21000	2.8	1100	3	5	efflux ratio (in vitro [7]): 0.7
Cc1cnc(N2CCN(Cc3ccc4c(c3)[nH]c(=O)c3ncccc34)CC2)n1C	9	383 (≈ 149 µg/mL)	> 40000	1.7	28000	121	–	–
CCc1nc2ccc(CN3CCN(c4ccc(C(=O)NC)nc4)CC3)cc2[nH]c1=O	7	12 (≈ 4.88 µg/mL)	–	2.4	4900	4	–	efflux ratio (in vitro [7]): 1; hepatocyte CLint [9]: 1.9 µL/min/1e6 cells
CNCc1ccc(-c2[nH]c3cc(F)cc4c3c2CCNC4=O)cc1 [RUCAPARIB]	–	–	–	–	–	27	–	Kd [10]: > 10000 nM; Kd(app) [11]: Active; Kd [12]: 3100 nM; Kd [13]: > 10000 nM
O=c1[nH]c(CCCN2CC=C(c3ccc(F)cc3)CC2)nc2c(Cl)cccc12	35	56 (≈ 22.3 µg/mL)	2600	3.8	20000	> 23000	65	–
CCc1cc2ccc(CN3CCN(c4ncc(C)n4C)CC3)cc2[nH]c1=O	25	224 (≈ 81.9 µg/mL)	12000	2.7	4200	3	–	–
C[C@]1(c2nc3c(C(N)=O)cccc3[nH]2)CCCN1 [VELIPARIB]	–	–	–	–	–	–	–	Kd(app) [14]: Active; IC50 (DLD-1; dld-1): 750 nM; Kd(app) [15]: Active; Kd(app) [16]: Active; Kd(app) [17]: Active; Kd(app) [18]: Active
CCc1cc2cnc(CN3CCN(c4ccc(C(=O)NC)nc4)CC3)cc2[nH]c1=O	6	31 (≈ 12.6 µg/mL)	–	2	–	2	–	hepatocyte CLint [9]: < 1 µL/min/1e6 cells
Cc1cnc(N2CCN(Cc3ccc4c5c(c(=O)[nH]c4c3)CCCC5)CC2)n1C	57	46 (≈ 18 µg/mL)	3800	3.2	490	–	–	–
Cc1cnc(N2CCN(CCCc3nc4c(Cl)cccc4c(=O)[nH]3)CC2)n1C	44	4 (≈ 1.6 µg/mL)	1500	2.3	4000	180	–	–
CCc1cc2ccc(CN3CCN(c4cnc(C(=O)NC)nc4)CC3)cc2[nH]c1=O	< 3	58 (≈ 23.6 µg/mL)	> 40000	1.8	2400	2500	8	efflux ratio (in vitro [7]): 14
CCc1cc2ccc(CN3CCN(c4cnc(C(=O)NC)cn4)CC3)cc2[nH]c1=O	18	2 (≈ 0.813 µg/mL)	> 40000	2.7	5900	4400	–	–
NC(=O)c1cccc2cn(-c3ccc([C@@H]4CCCNC4)cc3)nc12 [NIRAPARIB]	–	–	–	–	–	149	–	Kd(app) [19]: Active; Kd [20]: > 10000 nM; Kd [10]: > 10000 nM; Kd(app) [21]: Active; Kd(app) [15]: Active; Kd(app) [17]: Active
Cn1ncnc1[C@H]1c2n[nH]c(=O)c3cc(F)cc(c23)N[C@@H]1c1ccc(F)cc1 [TALAZOPARIB]	–	–	–	–	–	2	–	Kd [22]: > 10000 nM; Activity [23]: 1%; viability at 120 h, 0.1 µM [24]: 10%; Kd(app) [15]: Active; Kd(app) [11]: Active; IC50 at 5 days ([25]; CD34+ hematopoietic stem/progenitor cells): 27 nM; Activity ([25]; cd34-positive hematopoietic stem/progenitor cell, 120 h, DDE = dose-dependent effect, dose lower 1e-05 µM, dose upper 100 µM, time 5 day): Dde; Kd [13]: 1100 nM; Kd(app) [18]: Active
CCc1cc2ccc(CN3CCN(c4ccc(C(=O)NC)cc4)CC3)cc2[nH]c1=O	11	< 0.25	8300	3	3900	7	–	–
Cc1cnc(N2CCN(Cc3ccc4c5c(c(=O)[nH]c4c3)COCC5)CC2)n1C	8	158 (≈ 62.2 µg/mL)	> 40000	1.9	6600	–	38	efflux ratio (in vitro [7]): 10
